ChEMBL document CHEMBL5390253, “Discovery of Selective and Potent Macrocyclic CDK9 Inhibitors for the Treatment of Osimertinib-Resistant Non-Small-Cell Lung Cancer” (J Med Chem, 2023)
pIC50: −log10 of the molar value. Active and inactive are the calls of the source. The calls are words filed in the database; no cut-off is given here.

Tests used:
[1] = Induction of apoptosis in human Osimertinib-resistant NCI-H1975 cell assessed as necrotic cells at 125 nM measured after 16 hrs by Annexin V-FITC and PI staining based analysis (reference value: 0.50%); format: functional
[2] = Toxicity in ICR mouse assessed as effect on physical appearance at 100 mg/kg, iv measured for 8 to 9 days; format: organism-based; details: in vivo, time 8-9 day
PC-9 = assay: Antiproliferative activity against human PC-9 cells incubated for 72 hrs by MTT assay; format: functional, cell-based; details: PC-9, 72 h
[3] = target: Cyclin-dependent kinase 5/CDK5 activator 1 (Homo sapiens) (UniProt Q00535+Q15078); assay: Inhibition of CDK5/p25NCK (unknown origin) at 200 nM preincubated for 10 mins followed by substrate addition and measured after 60 mins in presence of ATP by ADP-Glo reagent based assay relative to control; format: protein-complex assay; details: time 70.0 min
Sequence of Cyclin-dependent kinase 5/CDK5 activator 1 (Homo sapiens) (Q00535 whole entry): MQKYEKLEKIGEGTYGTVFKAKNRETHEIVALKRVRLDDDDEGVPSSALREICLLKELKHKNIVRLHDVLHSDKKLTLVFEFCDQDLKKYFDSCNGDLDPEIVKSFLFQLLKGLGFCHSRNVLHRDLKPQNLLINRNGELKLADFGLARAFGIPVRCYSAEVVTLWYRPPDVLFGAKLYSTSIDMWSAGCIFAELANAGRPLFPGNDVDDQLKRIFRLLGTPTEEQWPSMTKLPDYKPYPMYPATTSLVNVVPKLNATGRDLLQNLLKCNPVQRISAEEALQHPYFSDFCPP
Sequence of Cyclin-dependent kinase 5/CDK5 activator 1 (Homo sapiens) (Q15078 99-307 partner limits assumed): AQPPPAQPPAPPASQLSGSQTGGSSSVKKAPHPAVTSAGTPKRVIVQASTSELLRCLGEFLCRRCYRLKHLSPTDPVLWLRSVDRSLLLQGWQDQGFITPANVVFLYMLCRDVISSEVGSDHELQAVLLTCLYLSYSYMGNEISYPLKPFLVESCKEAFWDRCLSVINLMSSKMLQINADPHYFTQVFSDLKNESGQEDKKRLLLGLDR

[4] = Induction of apoptosis in human Osimertinib-resistant NCI-H1975 cell assessed as early apoptotic cells at 500 nM measured after 16 hrs by Annexin V-FITC and PI staining based analysis (reference value: 1.78%); format: functional
[5] = target: Homeodomain-interacting protein kinase 1 (Homo sapiens) (UniProt Q86Z02); assay: Inhibition of HIPK1 (unknown origin) at 500 nM preincubated for 10 mins followed by substrate addition and measured after 60 mins in presence of ATP by ADP-Glo reagent based assay relative to control; details: time 70.0 min
Sequence of Homeodomain-interacting protein kinase 1 (Homo sapiens) (Q86Z02 whole entry, looked up): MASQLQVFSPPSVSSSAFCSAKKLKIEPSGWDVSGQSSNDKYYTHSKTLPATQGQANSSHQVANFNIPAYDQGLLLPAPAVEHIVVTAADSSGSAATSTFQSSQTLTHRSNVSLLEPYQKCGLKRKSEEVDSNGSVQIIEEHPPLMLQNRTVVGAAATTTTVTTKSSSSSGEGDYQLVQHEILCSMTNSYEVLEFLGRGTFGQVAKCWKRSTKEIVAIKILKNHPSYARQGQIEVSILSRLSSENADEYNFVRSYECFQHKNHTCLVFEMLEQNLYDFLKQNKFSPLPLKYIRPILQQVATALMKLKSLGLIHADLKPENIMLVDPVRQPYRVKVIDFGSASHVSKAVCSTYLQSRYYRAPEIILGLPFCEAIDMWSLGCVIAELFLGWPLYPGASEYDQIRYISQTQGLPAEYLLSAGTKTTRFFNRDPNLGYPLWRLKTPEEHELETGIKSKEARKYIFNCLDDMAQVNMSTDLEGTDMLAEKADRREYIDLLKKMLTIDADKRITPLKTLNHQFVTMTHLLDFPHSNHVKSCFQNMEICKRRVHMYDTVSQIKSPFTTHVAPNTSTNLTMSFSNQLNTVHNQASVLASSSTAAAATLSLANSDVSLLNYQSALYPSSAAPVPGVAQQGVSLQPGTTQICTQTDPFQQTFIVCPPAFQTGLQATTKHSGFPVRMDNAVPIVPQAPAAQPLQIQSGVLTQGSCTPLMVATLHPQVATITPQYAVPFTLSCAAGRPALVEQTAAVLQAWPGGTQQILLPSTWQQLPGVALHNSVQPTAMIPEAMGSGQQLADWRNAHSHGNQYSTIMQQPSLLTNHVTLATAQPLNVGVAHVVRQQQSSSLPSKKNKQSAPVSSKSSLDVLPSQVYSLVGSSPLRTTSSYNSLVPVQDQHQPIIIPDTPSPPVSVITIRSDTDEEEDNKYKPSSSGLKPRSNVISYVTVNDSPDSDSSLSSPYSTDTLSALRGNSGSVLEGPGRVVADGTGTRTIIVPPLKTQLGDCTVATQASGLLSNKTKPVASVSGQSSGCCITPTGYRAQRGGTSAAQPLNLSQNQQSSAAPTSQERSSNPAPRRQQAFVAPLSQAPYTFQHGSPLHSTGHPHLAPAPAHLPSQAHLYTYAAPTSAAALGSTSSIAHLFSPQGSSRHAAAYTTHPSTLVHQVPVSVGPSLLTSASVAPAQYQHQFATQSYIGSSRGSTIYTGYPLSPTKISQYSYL

CDK9/cyclin T1 = CDK9/cyclin T1 (Homo sapiens, UniProt P50750); assay: Inhibition of CDK9/Cyclin-T1 (unknown origin) preincubated for 10 mins followed by substrate addition and measured after 60 mins in presence of ATP by ADP-Glo reagent based assay; format: protein-complex assay
Sequence of CDK9/cyclin T1 (O60563 whole entry): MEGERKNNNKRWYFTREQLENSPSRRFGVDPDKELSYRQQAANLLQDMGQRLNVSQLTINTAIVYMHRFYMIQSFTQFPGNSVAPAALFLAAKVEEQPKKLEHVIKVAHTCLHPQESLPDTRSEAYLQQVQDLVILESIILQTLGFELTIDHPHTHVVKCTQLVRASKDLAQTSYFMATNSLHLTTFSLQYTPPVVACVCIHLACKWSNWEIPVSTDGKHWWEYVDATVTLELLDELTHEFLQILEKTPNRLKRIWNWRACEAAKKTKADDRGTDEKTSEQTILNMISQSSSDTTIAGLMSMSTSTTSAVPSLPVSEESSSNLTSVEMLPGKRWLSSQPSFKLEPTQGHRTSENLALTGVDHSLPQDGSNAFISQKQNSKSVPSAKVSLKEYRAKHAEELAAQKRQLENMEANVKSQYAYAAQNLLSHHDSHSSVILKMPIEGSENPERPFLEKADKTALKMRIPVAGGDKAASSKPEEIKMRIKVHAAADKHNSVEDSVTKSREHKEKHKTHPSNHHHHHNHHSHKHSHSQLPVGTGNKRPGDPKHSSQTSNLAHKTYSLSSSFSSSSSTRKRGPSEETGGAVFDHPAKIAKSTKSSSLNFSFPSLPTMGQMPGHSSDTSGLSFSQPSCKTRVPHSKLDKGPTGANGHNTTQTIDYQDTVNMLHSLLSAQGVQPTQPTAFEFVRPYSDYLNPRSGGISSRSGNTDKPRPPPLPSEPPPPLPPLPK
Sequence of CDK9/cyclin T1 (P50750 whole entry): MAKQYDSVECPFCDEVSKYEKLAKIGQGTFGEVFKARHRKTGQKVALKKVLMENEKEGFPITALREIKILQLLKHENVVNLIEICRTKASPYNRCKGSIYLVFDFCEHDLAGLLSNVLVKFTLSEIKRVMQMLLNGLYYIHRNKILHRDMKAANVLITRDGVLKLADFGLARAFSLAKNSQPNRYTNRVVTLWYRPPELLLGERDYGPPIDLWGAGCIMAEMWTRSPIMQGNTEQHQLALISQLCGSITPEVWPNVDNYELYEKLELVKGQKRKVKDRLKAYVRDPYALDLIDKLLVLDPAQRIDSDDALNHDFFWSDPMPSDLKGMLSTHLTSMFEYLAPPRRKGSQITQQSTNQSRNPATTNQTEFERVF

[6] = Toxicity in ICR mouse assessed as morphological changes in lung at 1000 mg/kg, po measured after 9 days by H and E staining based analysis; format: organism-based; details: in vivo, 216 h, time 9 day
[7] = Antiproliferative activity against human Osimertinib-resistant NCI-H1975 cell incubated for 72 hrs by MTT assay; format: functional, cell-based; details: NCI-H1975, 72 h
[8] = target: Cyclin-dependent kinase 2/cyclin E1 (Homo sapiens) (UniProt P24864+P24941); assay: Inhibition of CDK2/cyclin E1 (unknown origin) at 500 nM preincubated for 10 mins followed by substrate addition and measured after 60 mins in presence of ATP by ADP-Glo reagent based assay relative to control; format: protein-complex assay; details: time 70.0 min
[9] = target: Interleukin-1 receptor-associated kinase 1 (Homo sapiens) (UniProt P51617); assay: Inhibition of IRAK1 (unknown origin) at 500 nM preincubated for 10 mins followed by substrate addition and measured after 60 mins in presence of ATP by ADP-Glo reagent based assay relative to control; details: time 70.0 min
Sequence of Interleukin-1 receptor-associated kinase 1 (Homo sapiens) (P51617 whole entry, looked up): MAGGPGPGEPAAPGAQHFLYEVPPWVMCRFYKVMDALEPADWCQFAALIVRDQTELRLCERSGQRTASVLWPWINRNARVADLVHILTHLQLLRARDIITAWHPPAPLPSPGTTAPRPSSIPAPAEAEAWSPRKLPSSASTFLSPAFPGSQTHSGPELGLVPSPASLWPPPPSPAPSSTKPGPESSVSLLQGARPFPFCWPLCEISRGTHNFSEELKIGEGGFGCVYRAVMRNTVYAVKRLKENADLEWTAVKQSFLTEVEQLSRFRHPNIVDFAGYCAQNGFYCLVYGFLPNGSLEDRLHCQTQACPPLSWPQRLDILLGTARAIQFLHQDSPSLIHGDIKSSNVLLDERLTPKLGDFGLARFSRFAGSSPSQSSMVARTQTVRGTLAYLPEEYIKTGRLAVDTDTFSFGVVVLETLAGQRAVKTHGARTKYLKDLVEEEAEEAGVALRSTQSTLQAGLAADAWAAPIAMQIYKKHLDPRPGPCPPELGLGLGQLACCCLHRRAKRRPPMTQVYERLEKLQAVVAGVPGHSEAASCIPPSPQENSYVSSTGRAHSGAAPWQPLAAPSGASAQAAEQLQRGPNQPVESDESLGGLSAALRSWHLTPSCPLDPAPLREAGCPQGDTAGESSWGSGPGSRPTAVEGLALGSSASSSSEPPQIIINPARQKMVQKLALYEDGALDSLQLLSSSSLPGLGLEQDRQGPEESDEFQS

NCI-H1975 [10] = assay: Downregulation of cleaved caspase-3 level in human Osimertinib-resistant NCI-H1975 cell measured after 16 hrs by Western blot analysis; format: functional, cell-based; details: dose 125-2000 nM
[11] = target: Dual specificity tyrosine-phosphorylation-regulated kinase 1A (Homo sapiens) (UniProt Q13627); assay: Inhibition of DYRK1A (unknown origin) at 100 nM preincubated for 10 mins followed by substrate addition and measured after 60 mins in presence of ATP by ADP-Glo reagent based assay relative to control; details: time 70.0 min
[12] = Antitumor activity against patient derived #0243 lung cancer organoid assessed as inhibition of growth measured after 4 days; format: functional, tissue-based; details: Homo sapiens, 96 h
[13] = Oral bioavailability in Sprague-Dawley rat at 20 mg/kg measured upto 24 hrs; format: ADME, organism-based; details: in vivo
[14] = Toxicity in ICR mouse assessed as abnormalities in heart at 1000 mg/kg, po measured after 9 days by H and E staining based analysis; format: organism-based; details: in vivo, 216 h, time 9 day
[15] = Induction of apoptosis in human Osimertinib-resistant NCI-H1975 cell assessed as late apoptotic cells at 2000 nM measured after 16 hrs by Annexin V-FITC and PI staining based analysis (reference value: 2.84%); format: functional
[16] = Antiproliferative activity against human Osimertinib-resistant NCI-H1975 cell assessed as cell growth inhibition incubated for 72 hrs by MTT assay; format: functional, cell-based; details: NCI-H1975, 72 h
[17] = target: CDK2/Cyclin A2 (Homo sapiens) (UniProt P24941+P20248); assay: Inhibition of CDK2/Cyclin A2 (unknown origin) at 200 nM preincubated for 10 mins followed by substrate addition and measured after 60 mins in presence of ATP by ADP-Glo reagent based assay relative to control; format: protein-complex assay; details: time 70.0 min
[18] = target: Dual specificity protein kinase CLK2 (Homo sapiens) (UniProt P49760); assay: Inhibition of CLK2 (unknown origin) at 100 nM preincubated for 10 mins followed by substrate addition and measured after 60 mins in presence of ATP by ADP-Glo reagent based assay relative to control; details: time 70.0 min
[19] = Antitumor activity against patient derived #2422 lung cancer organoid assessed as inhibition of growth measured after 4 days; format: functional, tissue-based; details: Homo sapiens, 96 h
[20] = target: BDNF/NT-3 growth factors receptor (Homo sapiens) (UniProt Q16620); assay: Inhibition of TRKB (unknown origin) at 500 nM preincubated for 10 mins followed by substrate addition and measured after 60 mins in presence of ATP by ADP-Glo reagent based assay relative to control; details: time 70.0 min
Sequence of BDNF/NT-3 growth factors receptor (Homo sapiens) (Q16620 32-822 limits assumed): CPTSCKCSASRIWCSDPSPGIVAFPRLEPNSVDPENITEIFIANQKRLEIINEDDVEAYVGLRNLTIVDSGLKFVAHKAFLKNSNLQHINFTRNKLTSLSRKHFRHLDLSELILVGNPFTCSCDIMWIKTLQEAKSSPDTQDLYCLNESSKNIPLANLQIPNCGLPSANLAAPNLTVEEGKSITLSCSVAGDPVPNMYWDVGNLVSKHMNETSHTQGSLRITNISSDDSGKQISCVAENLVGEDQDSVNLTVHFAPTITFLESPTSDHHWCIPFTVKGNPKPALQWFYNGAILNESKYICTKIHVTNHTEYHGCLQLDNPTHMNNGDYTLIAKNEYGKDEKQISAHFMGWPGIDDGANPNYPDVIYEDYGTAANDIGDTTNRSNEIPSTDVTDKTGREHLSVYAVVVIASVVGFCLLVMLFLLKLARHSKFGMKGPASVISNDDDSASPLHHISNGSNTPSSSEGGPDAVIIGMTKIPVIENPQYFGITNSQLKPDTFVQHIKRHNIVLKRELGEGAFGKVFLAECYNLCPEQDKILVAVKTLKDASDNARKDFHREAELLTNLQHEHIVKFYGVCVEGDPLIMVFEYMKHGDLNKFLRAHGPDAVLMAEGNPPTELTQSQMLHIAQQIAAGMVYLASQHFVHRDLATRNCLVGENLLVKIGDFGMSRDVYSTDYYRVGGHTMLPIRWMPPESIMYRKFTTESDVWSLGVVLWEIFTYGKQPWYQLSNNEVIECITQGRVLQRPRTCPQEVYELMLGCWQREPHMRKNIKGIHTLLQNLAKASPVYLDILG

[21] = Induction of apoptosis in human Osimertinib-resistant NCI-H1975 cell assessed as viable cells at 500 nM measured after 16 hrs by Annexin V-FITC and PI staining based analysis (reference value: 94.9%); format: functional; details: read-out: Activity
[22] = target: CDK4/Cyclin D3 (Homo sapiens) (UniProt P11802+P30281); assay: Inhibition of CDK4/Cyclin D3 (unknown origin) at 200 nM preincubated for 10 mins followed by substrate addition and measured after 60 mins in presence of ATP by ADP-Glo reagent based assay relative to control; format: protein-complex assay; details: time 70.0 min
[23] = Apparent volume of distribution in Sprague-Dawley rat at 2 mg/kg, iv measured upto 24 hrs; format: ADME, organism-based; details: in vivo, read-out: Vz
[24] = Toxicity in ICR mouse assessed as abnormalities in kidney at 1000 mg/kg, po measured after 9 days by H and E staining based analysis; format: organism-based; details: in vivo, 216 h, time 9 day
[25] = target: CDK7/Cyclin H/MNAT1 (Homo sapiens) (UniProt P51946+P50613+P51948); assay: Inhibition of CDK7/Cyclin H/MAT1 (unknown origin) at 200 nM preincubated for 10 mins followed by substrate addition and measured after 60 mins in presence of ATP by ADP-Glo reagent based assay relative to control; format: protein-complex assay; details: time 70.0 min
NCI-H1975 [26] = assay: Inhibition of colony formation in human Osimertinib-resistant NCI-H1975 cell assessed as inhibition of cell growth at 125 to 2000 nM measured after 2 weeks by crystal violet staining based analysis; format: functional; details: dose 125-2000 nM
[27] = target: CDK1/Cyclin E (Homo sapiens) (UniProt P06493+P24864); assay: Inhibition of CDK1/Cyclin E1 (unknown origin) at 200 nM preincubated for 10 mins followed by substrate addition and measured after 60 mins in presence of ATP by ADP-Glo reagent based assay relative to control; format: protein-complex assay; details: time 70.0 min
Sequence of CDK1/Cyclin E (Homo sapiens) (P06493 whole entry, looked up): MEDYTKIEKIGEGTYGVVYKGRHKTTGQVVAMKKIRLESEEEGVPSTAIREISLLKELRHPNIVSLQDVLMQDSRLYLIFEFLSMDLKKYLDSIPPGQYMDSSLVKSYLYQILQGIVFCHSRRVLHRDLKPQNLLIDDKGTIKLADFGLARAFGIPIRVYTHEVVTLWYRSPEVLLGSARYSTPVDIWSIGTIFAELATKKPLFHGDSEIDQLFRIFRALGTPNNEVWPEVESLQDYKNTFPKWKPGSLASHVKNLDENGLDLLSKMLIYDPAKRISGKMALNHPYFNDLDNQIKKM
Sequence of CDK1/Cyclin E (Homo sapiens) (P24864 whole entry, looked up): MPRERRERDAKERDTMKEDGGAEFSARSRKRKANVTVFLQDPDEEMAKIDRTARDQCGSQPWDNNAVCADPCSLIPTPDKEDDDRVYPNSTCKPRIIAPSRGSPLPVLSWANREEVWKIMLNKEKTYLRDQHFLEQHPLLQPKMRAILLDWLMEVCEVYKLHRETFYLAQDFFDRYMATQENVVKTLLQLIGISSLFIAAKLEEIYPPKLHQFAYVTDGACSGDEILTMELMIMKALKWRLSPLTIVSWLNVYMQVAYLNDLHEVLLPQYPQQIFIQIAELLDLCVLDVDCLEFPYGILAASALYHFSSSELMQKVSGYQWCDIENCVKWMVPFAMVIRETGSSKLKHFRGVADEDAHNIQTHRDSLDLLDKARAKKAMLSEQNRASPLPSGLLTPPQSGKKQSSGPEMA

[28] = target: Tyrosine-protein kinase JAK2 (Homo sapiens) (UniProt O60674); assay: Inhibition of JAK2 (unknown origin) at 100 nM preincubated for 10 mins followed by substrate addition and measured after 60 mins in presence of ATP by ADP-Glo reagent based assay relative to control; details: time 70.0 min

pIC50 (PC-9): 6.90
inhibition [3]: 38.9%
inhibition [5]: 96%
pIC50 (CDK9/cyclin T1): 8.49
inhibition [8]: 76.1%
inhibition [9]: 73.5%
inhibition [11]: 14.3%
bioavailability [13]: 8%
inhibition [17]: 39.1%
inhibition [18]: 32.8%
inhibition [20]: 80.7%
inhibition [22]: 50.1%
Vd [23]: 12 L/kg
inhibition [25]: 12.8%
inhibition [27]: 16.4%
inhibition [28]: 23.3%
SMILES: O=C(NCCN1CCOCC1)c1ccc2cc1OCCCCCCOc1cc(ccc1F)-c1nc(ncc1F)N2
Activity [1]: 3.25%
Activity [2]: Non-Toxic
Activity [4]: 14.4%
Activity [6]: Non-Toxic
pIC50 [7]: 6.60
Activity (NCI-H1975 [10]): Dose-Dependent Effect
pIC50 [12]: 6.92
Activity [14]: Non-Toxic
Activity [15]: 13.7%
pIC50 [16]: 6.72
pIC50 [19]: > 7.10
viability at 0.5 µM [21]: 75.6%
Activity [24]: Non-Toxic
inhibition (NCI-H1975 [26]): Active
